# From ChEMBL document CHEMBL3875233, “Non-kinase targets of protein kinase inhibitors” (Nat Rev Drug Discov, 2017)
# Tests used:
# [1] = Inhibition of tubulin (unknown origin) polymerization by spectrophotometric method; set-up: species or system Homo sapiens
# [2] = target: Bromodomain-containing protein 2 (Homo sapiens, UniProt P25440); experiment: Inhibition of immobilized N-LY294002 bead binding to BRD2 (unknown origin) expressed in HEK293T cell nuclear extract incubated for 1 hr by LC-MS/MS analysis; set-up: species or system HEK-293T
# [3] = target: Bromodomain-containing protein 3 (Homo sapiens, UniProt Q15059); experiment: Inhibition of immobilized N-LY294002 bead binding to BRD3 (unknown origin) expressed in HEK293T cell nuclear extract incubated for 1 hr by LC-MS/MS analysis; set-up: species or system HEK-293T
# [4] = target: T1, Bromodomain-containing protein 4 (Homo sapiens, UniProt O60885); experiment: Inhibition of immobilized N-LY294002 bead binding to C-terminal Flag-tagged BRD4 (unknown origin) expressed in HEK293T cell nuclear extract incubated for 1 hr by LC-MS/MS analysis; set-up: species or system HEK-293T
# [5] = target: T2, Ribosyldihydronicotinamide dehydrogenase [quinone] (Homo sapiens, UniProt P16083)
# T2 sequence (P16083 whole entry): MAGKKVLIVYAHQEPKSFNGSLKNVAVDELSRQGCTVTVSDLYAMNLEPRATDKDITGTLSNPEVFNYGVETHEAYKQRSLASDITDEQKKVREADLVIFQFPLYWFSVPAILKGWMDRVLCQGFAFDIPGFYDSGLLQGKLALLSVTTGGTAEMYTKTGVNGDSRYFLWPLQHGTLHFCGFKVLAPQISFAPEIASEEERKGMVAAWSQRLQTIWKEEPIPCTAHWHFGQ
# Description: Inhibition of kinobead binding to NQO2 in human K562 cells incubated for 30 mins by iTRAQ reagent-based mass spectrometric method
# [6] = target: T1, Bromodomain-containing protein 4
# Description: Binding affinity to recombinant human His6-TEV protease-tagged BRD4 bromodomain 1 expressed in bacteria by isothermal titration calorimetric method
# [7] = target: Casein kinase I isoform delta (Homo sapiens, UniProt P48730); experiment: Inhibition of human CK1delta using casein as substrate in presence of [gamma-32P]-ATP
# [8] = Inhibition of porcine brain tubulin polymerization measured every min for 1 hr by fluorescence assay; set-up: species or system Sus scrofa
# [9] = target: Casein kinase I isoform epsilon (Homo sapiens, UniProt P49674); experiment: Inhibition of human CK1epsilon using casein as substrate in presence of [gamma-32P]-ATP
# [10] = target: MAP kinase-activated protein kinase 2 (Homo sapiens, UniProt P49137); experiment: Inhibition of recombinant MK2 (45 to 400 residues) (unknown origin) using fluorescein isothiocyanate-KKKALSRQLSVAA as substrate
# [11] = target: T3, Ferrochelatase, mitochondrial (Homo sapiens, UniProt P22830); experiment: Stabilization of FECH in human K562 cells after 1 hr by thermal shift assay; type: cell-based
# T3 sequence (P22830 whole entry): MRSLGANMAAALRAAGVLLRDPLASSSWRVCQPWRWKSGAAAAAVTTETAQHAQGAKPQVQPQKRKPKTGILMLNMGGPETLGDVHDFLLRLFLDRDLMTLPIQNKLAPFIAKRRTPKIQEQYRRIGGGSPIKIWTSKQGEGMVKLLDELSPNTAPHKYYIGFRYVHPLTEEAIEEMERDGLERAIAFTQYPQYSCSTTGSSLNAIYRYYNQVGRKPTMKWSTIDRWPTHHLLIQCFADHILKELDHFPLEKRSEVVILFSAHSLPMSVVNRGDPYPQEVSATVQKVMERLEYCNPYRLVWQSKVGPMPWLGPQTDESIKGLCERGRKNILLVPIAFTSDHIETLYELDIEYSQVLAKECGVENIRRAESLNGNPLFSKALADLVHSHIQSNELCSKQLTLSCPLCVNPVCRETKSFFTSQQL
# [12] = Inhibition of porcine brain tubulin polymerization measured every min during incubation by fluorescence assay; set-up: species or system Sus scrofa
# [13] = Inhibition of tubulin polymerization in human U87 cells assessed as decrease in cell viability after 72 hrs by Alamar blue assay; type: cell-based, U-87MG ATCC; conditions: U-87 MG
# [14] = target: Mitogen-activated protein kinase 14 (Mus musculus, UniProt P47811); experiment: Inhibition of mouse N-terminal 5His-tagged p38alpha assessed as decrease in 6His-tagged MK2a (51 to 400 residues) phosphorylation in presence of [gamma-33P]-ATP by scintillation counting method
# [15] = target: Oxidized purine nucleoside triphosphate hydrolase (Homo sapiens, UniProt P36639)
# Description: Inhibition of DsRed-fused MTH1 (unknown origin) expressed in HEK293T cells using 8-oxo-dGTP as substrate
# [16] = target: T1, Bromodomain-containing protein 4; remark: listed apart in the source
# [17] = target: Bromodomain testis-specific protein (Homo sapiens) (UniProt Q58F21)
# [18] = target: T4, Receptor-type tyrosine-protein kinase FLT3 (Homo sapiens, UniProt P36888); experiment: Inhibition of FLT3 (unknown origin)
# T4 sequence (P36888 whole entry): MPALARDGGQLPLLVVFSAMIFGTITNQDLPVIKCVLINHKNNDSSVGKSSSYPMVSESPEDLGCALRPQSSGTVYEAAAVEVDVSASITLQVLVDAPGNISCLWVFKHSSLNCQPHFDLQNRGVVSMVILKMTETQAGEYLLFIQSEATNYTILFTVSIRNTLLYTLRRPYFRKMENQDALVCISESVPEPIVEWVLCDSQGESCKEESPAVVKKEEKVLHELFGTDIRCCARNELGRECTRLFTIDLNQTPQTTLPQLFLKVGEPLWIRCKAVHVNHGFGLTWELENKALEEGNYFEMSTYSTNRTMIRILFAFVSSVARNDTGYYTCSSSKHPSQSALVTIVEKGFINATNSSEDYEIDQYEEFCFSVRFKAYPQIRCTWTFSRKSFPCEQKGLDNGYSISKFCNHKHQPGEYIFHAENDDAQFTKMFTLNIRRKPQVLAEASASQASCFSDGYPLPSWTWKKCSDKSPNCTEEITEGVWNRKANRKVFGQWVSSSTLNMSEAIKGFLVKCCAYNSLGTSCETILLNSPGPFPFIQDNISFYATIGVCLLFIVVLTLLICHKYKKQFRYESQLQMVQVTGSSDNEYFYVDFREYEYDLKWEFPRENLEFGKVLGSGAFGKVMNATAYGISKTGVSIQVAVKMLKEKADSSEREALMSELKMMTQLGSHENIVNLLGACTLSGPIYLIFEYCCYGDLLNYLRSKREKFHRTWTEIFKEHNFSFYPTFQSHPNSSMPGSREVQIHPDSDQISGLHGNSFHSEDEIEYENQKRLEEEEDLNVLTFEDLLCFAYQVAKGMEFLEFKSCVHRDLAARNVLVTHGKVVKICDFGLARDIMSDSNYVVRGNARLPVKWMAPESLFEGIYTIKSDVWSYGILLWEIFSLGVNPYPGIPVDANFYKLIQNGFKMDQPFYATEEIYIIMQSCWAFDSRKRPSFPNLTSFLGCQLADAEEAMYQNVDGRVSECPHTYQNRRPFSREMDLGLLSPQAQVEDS
# [19] = target: T5, Phosphatidylinositol 4,5-bisphosphate 3-kinase catalytic subunit delta isoform (Homo sapiens, UniProt O00329); experiment: Inhibition of immobilized N-LY294002 bead binding to PI3Kdelta (unknown origin) expressed in HEK293T cells incubated for 1 hr by LC-MS/MS analysis; type: cell-based, HEK-293T
# T5 sequence (O00329 whole entry): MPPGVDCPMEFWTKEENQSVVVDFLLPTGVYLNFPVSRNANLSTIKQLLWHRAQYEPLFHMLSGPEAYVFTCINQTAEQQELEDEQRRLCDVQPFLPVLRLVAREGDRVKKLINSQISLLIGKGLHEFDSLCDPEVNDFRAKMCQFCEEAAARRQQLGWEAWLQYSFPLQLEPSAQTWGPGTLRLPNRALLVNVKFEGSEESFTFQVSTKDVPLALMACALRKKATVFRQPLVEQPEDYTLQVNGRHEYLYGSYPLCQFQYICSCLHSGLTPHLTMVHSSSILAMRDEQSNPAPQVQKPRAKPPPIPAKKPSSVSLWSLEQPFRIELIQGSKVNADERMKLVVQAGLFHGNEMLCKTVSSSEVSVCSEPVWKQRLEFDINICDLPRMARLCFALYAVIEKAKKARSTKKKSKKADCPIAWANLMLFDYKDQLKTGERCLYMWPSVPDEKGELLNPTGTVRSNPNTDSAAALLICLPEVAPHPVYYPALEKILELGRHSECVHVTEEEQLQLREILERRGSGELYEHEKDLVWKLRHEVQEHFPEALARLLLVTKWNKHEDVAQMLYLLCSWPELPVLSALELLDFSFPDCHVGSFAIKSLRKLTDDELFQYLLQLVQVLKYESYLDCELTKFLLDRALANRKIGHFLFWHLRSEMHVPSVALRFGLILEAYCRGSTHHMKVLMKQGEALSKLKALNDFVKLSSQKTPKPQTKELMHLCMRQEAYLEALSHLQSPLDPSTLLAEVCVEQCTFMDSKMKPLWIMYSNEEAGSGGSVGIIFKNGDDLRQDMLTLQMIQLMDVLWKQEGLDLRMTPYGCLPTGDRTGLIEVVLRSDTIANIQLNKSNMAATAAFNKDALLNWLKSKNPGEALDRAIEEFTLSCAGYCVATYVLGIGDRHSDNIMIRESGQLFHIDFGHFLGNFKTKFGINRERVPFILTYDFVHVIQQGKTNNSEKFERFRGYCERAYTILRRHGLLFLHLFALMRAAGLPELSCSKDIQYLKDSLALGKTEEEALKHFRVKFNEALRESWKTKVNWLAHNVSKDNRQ
# [20] = target: Indoleamine 2,3-dioxygenase 1 (Homo sapiens, UniProt P14902); experiment: Inhibition of recombinant human IDO using L-tryptophan as substrate after 60 mins
# [21] = target: T6, Receptor-interacting serine/threonine-protein kinase 1 (Homo sapiens, UniProt Q13546); experiment: Inhibition of recombinant human GST-fused RIPK1 (1 to 497 residues) expressed in baculovirus infected insect Sf9 cells in presence of 32P-gamma-ATP after 30 mins by autoradiogram-based Western blot method
# T6 sequence (Q13546 whole entry): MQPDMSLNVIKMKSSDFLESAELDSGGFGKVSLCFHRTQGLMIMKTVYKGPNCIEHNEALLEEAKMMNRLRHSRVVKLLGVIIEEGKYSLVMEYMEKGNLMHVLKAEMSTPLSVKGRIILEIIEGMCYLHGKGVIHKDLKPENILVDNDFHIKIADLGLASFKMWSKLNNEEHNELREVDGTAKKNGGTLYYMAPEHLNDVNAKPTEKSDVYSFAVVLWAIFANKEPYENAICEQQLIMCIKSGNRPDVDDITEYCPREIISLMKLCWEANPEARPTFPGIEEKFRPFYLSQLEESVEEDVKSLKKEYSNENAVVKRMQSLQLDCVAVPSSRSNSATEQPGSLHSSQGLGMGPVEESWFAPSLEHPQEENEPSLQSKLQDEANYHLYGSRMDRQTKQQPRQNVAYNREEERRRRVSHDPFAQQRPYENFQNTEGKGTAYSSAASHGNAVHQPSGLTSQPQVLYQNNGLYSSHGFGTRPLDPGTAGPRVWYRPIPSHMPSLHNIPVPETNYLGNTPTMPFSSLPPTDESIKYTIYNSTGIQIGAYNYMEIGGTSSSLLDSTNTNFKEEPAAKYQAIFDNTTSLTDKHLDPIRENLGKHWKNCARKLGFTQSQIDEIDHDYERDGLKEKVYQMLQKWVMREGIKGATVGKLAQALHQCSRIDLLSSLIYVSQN
# Chain of Bromodomain-containing protein 2 (P25440 whole entry): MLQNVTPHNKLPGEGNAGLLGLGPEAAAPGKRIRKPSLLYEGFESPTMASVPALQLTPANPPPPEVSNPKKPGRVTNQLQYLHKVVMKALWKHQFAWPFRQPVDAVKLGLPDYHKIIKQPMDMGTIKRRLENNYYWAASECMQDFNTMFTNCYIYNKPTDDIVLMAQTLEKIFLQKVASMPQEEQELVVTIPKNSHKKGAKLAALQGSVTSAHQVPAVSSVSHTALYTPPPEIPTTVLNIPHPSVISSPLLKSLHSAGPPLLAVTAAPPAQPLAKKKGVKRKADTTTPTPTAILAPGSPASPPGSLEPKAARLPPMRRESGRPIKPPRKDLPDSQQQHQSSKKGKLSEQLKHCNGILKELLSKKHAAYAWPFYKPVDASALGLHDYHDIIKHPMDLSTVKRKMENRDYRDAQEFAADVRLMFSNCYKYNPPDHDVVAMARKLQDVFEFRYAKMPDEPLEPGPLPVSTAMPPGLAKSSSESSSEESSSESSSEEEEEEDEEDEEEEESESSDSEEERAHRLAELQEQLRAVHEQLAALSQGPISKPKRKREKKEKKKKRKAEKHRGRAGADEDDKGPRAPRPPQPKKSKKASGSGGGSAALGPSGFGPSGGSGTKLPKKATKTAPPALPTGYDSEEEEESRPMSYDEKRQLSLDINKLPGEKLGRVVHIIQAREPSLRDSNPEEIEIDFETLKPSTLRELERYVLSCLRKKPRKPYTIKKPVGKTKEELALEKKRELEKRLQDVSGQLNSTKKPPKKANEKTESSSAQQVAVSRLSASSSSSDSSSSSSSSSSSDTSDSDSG
# Chain of Bromodomain-containing protein 3 (Q15059 whole entry): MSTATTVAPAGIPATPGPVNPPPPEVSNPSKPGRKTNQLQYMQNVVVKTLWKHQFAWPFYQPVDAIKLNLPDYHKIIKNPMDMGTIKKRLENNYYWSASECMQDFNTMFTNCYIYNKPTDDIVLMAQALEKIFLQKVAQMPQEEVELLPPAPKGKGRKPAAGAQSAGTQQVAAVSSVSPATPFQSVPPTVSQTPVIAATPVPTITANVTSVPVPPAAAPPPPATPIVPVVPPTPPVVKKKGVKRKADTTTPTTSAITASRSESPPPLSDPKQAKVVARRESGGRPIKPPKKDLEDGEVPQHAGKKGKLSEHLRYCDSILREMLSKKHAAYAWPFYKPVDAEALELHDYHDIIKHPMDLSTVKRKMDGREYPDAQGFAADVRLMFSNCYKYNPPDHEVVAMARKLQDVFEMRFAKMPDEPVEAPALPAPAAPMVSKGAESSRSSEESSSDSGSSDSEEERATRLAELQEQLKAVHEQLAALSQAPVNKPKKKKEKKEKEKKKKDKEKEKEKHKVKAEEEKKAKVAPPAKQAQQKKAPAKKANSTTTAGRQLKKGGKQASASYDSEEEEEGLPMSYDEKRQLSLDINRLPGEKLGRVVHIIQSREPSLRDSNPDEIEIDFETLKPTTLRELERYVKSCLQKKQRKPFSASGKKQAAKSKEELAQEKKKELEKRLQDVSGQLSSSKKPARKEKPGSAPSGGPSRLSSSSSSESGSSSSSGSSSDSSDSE
# Chain of MAP kinase-activated protein kinase 2 (P49137 whole entry, the tested form may be a part): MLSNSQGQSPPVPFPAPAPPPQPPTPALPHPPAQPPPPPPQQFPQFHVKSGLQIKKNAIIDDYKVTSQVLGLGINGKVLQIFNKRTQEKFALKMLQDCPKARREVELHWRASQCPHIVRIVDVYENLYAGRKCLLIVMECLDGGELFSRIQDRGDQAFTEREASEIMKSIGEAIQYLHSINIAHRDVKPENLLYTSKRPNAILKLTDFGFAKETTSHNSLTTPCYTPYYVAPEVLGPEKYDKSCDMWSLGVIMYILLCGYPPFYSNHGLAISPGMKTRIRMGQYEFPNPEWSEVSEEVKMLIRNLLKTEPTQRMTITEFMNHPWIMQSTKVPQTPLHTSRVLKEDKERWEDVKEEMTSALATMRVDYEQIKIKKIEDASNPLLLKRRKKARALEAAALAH
# Chain of Indoleamine 2,3-dioxygenase 1 (P14902 whole entry, the tested form may be a part): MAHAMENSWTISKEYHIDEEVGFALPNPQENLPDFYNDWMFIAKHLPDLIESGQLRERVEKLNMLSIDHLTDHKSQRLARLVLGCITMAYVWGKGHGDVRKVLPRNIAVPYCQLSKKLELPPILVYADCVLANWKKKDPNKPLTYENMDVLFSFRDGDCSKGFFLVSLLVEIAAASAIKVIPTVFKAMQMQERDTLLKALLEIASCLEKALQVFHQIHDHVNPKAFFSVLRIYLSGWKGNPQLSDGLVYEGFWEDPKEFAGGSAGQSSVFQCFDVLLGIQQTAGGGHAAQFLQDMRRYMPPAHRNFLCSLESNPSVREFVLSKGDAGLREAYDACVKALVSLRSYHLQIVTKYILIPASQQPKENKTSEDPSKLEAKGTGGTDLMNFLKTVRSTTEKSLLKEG
# Chain of Casein kinase I isoform epsilon (P49674 whole entry, the tested form may be a part, canonical isoform): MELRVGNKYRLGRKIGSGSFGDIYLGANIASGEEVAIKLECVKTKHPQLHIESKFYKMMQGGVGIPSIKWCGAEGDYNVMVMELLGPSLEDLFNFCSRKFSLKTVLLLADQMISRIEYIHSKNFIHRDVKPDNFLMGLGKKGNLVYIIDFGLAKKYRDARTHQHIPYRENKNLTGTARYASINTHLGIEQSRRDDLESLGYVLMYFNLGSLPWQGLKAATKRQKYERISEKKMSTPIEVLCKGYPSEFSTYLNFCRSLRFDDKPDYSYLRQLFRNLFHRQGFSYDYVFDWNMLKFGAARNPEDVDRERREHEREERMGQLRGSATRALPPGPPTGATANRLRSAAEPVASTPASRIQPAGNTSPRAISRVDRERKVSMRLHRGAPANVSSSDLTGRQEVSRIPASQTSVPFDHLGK
# Chain of Mitogen-activated protein kinase 14 (P47811 whole entry, the tested form may be a part): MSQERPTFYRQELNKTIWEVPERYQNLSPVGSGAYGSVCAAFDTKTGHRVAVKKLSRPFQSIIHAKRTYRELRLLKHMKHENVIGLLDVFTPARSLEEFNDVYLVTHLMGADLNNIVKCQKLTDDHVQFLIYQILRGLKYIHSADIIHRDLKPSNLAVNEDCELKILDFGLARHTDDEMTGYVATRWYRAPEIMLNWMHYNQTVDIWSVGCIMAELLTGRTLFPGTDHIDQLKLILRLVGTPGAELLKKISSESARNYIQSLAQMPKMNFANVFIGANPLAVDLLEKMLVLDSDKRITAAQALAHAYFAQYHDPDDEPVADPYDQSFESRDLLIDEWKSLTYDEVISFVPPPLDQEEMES
# Chain of Casein kinase I isoform delta (P48730 whole entry, canonical isoform): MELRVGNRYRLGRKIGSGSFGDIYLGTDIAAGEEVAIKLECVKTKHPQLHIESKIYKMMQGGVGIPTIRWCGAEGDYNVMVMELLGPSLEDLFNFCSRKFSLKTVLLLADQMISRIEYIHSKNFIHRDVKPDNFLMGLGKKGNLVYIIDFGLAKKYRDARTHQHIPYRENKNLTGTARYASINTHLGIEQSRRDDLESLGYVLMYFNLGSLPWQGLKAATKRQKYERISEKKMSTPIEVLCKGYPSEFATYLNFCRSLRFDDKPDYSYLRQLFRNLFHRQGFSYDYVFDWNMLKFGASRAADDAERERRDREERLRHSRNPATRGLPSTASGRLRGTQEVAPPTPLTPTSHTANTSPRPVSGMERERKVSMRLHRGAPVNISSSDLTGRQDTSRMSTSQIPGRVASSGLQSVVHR
compound,measurement,setting,value
O=C(c1ccccc1-c1ccccc1)N1CCc2c([nH]c3ccccc23)C1,EC50,[1],< 1 µM
O=c1cc(N2CCNCC2)oc2c(-c3ccccc3)cccc12,IC50,[2],7.4 µM
same,IC50,[3],11.5 µM
same,IC50,[4],9.05 µM
Cc1cn(-c2cc(NC(=O)c3ccc(C)c(Nc4nccc(-c5cccnc5)n4)c3)cc(C(F)(F)F)c2)cn1 [NILOTINIB],IC50,[5],1.8 µM
CN(c1ccccc1CNc1nc(Nc2ccc3c(c2)CC(=O)N3)ncc1C(F)(F)F)S(C)(=O)=O,Kd,[6],0.445 µM
COc1cc(OC)c(/C=C2/C(=O)Nc3ccccc32)c(OC)c1,IC50,[7],1 to 25 µM
same,EC50,[8],< 1 µM
same,IC50,[9],1 to 25 µM
Cc1ccc(-c2ccc3c(ccc4sc5c(c43)NC[C@@H](C)NC5=O)n2)cn1,Ki,[10],0.005 µM
CCCS(=O)(=O)Nc1ccc(F)c(C(=O)c2c[nH]c3ncc(-c4ccc(Cl)cc4)cc23)c1F [VEMURAFENIB],EC50,[11],5.01 µM
CC[C@@H]1C(=O)N(C)c2cnc(Nc3ccc(C(=O)N[C@H]4CC[C@H](N5CCN(CC6CC6)CC5)CC4)cc3OC)nc2N1C(C)C [VOLASERTIB],Kd,[6],0.079 µM
O=C1NC(=O)[C@@H](c2cn3c4c(cccc24)CCC3)[C@@H]1c1c[nH]c2ccccc12 [TIVANTINIB],EC50,[12],< 1 µM
O=C(CCCc1ccc(-c2ccccc2F)cc1)Nc1ccc(O)cc1,EC50,[13],< 1 µM
same,IC50,[14],0.33 µM
Nc1nc(NCCc2ccccc2)c2nc[nH]c2n1,IC50,[15],0.1 to 0.22 µM
C[S+]([O-])c1ccc(-c2nc(-c3ccc(F)cc3)c(-c3ccncc3)[nH]2)cc1 (configuration not stated),ΔTm,[16],1.3 °C
same,ΔTm,[17],0.85 °C
Cc1cnc(Nc2ccc(N3CCN(C)CC3)cc2)nc1Nc1cccc(S(=O)(=O)NC(C)(C)C)c1,IC50,[18],0.025 µM
Oc1ccc(-c2nc(-c3ccc(F)cc3)c(-c3ccncc3)[nH]2)cc1 [SB-202190],Kd,[6],3.4 µM
O=c1cc(N2CCOCC2)oc2c(-c3ccccc3)cccc12 [LY-294002],IC50,[2],10.3 µM
same,IC50,[3],13.7 µM
same,IC50,[4],12.4 µM
same,IC50,[19],1.53 µM
CN1C(=O)C(Cc2c[nH]c3ccccc23)NC1=S (configuration not stated) [NECROSTATIN],IC50,[20],115 µM
same,IC50,[21],0.182 µM
CC1(C)CC2CC(C)(CN2c2ncnc3[nH]cnc23)C1 (configuration not stated),IC50,[15],0.1 to 0.22 µM
